Reference: publication PMC6028563, “Probing Substituents in the 1- and 3-Position: Tetrahydropyrazino-Annelated Water-Soluble Xanthine Derivatives as Multi-Target Drugs With Potent Adenosine Receptor Antagonistic Activity” (Frontiers in Chemistry, 2018)

Columns and labels:
human A3 AR = molecular target: T1, human A3 AR (Homo sapiens, UniProt P0DMS8); test: Radioligand binding assay at human A3 AR vs. [^3H]PSB-11; conditions: for Ki: CHO cell membranes, n = 2 (n = 3 where marked a), read-out: Ki ± SEM, A3 vs. [^3H]PSB-11; for inhibition at 10 µM: at 10,000 nM, read-out: % inhibition of radioligand binding at indicated concentration, A3 vs. [^3H]PSB-11
T1 construct: expressed in transfected cells; host or cells: CHO cells
T1 sequence (P0DMS8 1-318): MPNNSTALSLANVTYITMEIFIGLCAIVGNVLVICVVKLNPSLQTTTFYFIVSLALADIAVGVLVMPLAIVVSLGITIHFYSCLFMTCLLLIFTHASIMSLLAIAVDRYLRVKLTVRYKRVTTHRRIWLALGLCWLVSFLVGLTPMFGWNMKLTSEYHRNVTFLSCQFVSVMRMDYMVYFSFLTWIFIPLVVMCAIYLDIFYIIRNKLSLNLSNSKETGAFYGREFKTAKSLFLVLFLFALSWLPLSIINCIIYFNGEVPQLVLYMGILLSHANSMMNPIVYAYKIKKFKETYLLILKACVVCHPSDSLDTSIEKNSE
Procedure: (§1) Membrane preparations and radioligand binding assays at rat A1 (rat brain cortex) and rat A2A ARs (rat brain striatum) were performed as previously described (Ozola et al., [2003]; Alnouri et al., [2015]). For assays at human A1, A2A, A2B, and A3 ARs, CHO cell membranes expressing one of the human AR subtypes were used as previously reported (Klotz et al., [1998]; Alnouri et al., [2015]; De Filippo et al., [2016]).
(§2) The synthesized tetrahydropyrazino[2,1-f ]purinediones 13–20 were evaluated in radioligand binding assays for their affinity to A1 ARs of rat brain cortical membrane and to A2A ARs of rat brain striatal membrane preparations. Selected compounds were further investigated for their affinity to human A1 and A2A ARs recombinantly expressed in Chinese hamster ovary (CHO) cells. All compounds were additionally investigated for their affinity to human A2B and A3 ARs recombinantly expressed in CHO cells to determine their AR subtype selectivity. […] It is well known that all xanthine derivatives lacking a ribose moiety, including tricyclic compounds, can only block ARs, but never act as AR agonists; therefore, additional functional studies were not required. […] Potent MAO-B inhibitors were additionally investigated for inhibition of human MAO-A to assess their selectivity. Results are presented in Tables 1–6, and data of standard ligands are included for comparison.

rat A1 AR = molecular target: T2, rat A1 AR (Rattus norvegicus, UniProt P25099); test: Radioligand binding assay at rat A1 AR (rat brain cortex) vs. [^3H]CCPA; conditions: rat (r); for Ki: rat brain cortex, n = 3; for inhibition at 1.5 µM: read-out: % inhibition of radioligand binding at indicated concentration, A1 vs. [^3H]CCPA, at 1,500 nM
T2 construct: A1 ARs of rat brain cortical membrane; from tissue; host or cells: rat brain cortex membranes
T2 sequence (P25099 1-326): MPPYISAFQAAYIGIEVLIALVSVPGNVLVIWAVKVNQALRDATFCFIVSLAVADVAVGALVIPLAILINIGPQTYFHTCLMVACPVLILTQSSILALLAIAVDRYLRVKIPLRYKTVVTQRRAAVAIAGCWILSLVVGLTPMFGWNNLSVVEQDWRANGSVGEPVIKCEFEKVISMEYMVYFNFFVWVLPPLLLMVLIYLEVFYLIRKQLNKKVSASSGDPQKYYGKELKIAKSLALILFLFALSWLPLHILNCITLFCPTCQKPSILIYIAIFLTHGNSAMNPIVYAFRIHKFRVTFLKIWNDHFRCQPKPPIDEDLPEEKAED
Procedure: as §1, §2

human A2B AR = molecular target: T3, human A2B AR (Homo sapiens, UniProt P29275); test: Radioligand binding assay at human A2B AR vs. [^3H]PSB-603; conditions: for Ki: CHO cell membranes, n = 2 (n = 3 where marked a), read-out: Ki ± SEM, A2B vs. [^3H]PSB-603; for inhibition at 1 µM: at 1,000 nM, read-out: % inhibition of radioligand binding at indicated concentration, A2B vs. [^3H]PSB-603
T3 construct: expressed in transfected cells; host or cells: CHO cells
T3 sequence (P29275 1-332): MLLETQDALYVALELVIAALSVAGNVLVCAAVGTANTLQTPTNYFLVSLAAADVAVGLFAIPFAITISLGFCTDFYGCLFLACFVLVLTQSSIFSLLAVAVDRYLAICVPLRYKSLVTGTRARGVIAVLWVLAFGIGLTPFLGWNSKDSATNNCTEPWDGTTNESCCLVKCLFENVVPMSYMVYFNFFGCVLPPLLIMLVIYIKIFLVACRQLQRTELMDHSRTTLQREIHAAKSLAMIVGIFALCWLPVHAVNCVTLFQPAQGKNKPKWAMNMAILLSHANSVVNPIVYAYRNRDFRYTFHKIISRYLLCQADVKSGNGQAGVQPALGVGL
Procedure: as §1, §2

rat A2A AR = molecular target: T4, rat A2A AR (Rattus norvegicus, UniProt P30543); test: Radioligand binding assay at rat A2A AR (rat brain striatum) vs. [^3H]MSX-2; conditions: rat (r); for Ki: rat brain striatum, n = 3, read-out: Ki ± SEM, A2A vs. [^3H]MSX-2; for % inhibition of radioligand binding at indicated concentration, A2A vs. [^3H]MSX-2: at 1,000 nM
T4 construct: A2A ARs of rat brain striatal membrane preparations; from tissue; host or cells: rat brain striatum membranes
T4 sequence (P30543 whole entry): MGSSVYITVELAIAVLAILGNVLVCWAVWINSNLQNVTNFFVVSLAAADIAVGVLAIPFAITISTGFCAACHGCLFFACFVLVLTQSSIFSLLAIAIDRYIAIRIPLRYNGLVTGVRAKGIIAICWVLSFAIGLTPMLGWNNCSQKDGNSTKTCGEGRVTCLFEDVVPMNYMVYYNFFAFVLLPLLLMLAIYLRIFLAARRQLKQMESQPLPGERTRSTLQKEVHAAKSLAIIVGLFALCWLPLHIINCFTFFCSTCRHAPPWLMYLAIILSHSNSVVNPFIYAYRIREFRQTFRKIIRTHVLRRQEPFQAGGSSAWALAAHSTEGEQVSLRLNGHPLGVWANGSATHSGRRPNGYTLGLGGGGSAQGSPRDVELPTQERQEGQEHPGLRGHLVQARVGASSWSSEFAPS
Procedure: as §1, §2

human A1 AR = molecular target: T5, human A1 AR (Homo sapiens, UniProt P30542); test: Radioligand binding assay at human A1 AR vs. [^3H]CCPA; conditions: human (h); CHO cell membranes; n = 3
T5 construct: expressed in transfected cells; host or cells: CHO cells
T5 sequence (P30542 1-326): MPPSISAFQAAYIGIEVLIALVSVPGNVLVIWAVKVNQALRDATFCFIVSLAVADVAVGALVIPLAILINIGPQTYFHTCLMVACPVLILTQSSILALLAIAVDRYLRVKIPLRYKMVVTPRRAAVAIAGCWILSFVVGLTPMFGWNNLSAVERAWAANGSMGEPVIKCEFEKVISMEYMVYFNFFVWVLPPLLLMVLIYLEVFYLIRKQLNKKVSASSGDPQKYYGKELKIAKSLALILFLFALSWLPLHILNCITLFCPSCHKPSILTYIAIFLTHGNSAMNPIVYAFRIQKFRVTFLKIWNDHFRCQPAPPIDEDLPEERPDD
Procedure: as §1, §2

recombinant human MAO-B = molecular target: T6, recombinant human MAO-B (Homo sapiens, UniProt P27338); test: Monoamine oxidase assay (Amplex Red), MAO-B; format: biochemical; conditions: for inhibition at 10 µM: at 10,000 nM (10 μM), read-out: % inhibition at indicated concentration, Human MAO-B; for IC50: read-out: IC50 ± SEM, Human MAO-B
T6 construct: purchased Sigma-Aldrich M7441; host or cells: baculovirus-infected insect cells
T6 sequence (P27338 1-520): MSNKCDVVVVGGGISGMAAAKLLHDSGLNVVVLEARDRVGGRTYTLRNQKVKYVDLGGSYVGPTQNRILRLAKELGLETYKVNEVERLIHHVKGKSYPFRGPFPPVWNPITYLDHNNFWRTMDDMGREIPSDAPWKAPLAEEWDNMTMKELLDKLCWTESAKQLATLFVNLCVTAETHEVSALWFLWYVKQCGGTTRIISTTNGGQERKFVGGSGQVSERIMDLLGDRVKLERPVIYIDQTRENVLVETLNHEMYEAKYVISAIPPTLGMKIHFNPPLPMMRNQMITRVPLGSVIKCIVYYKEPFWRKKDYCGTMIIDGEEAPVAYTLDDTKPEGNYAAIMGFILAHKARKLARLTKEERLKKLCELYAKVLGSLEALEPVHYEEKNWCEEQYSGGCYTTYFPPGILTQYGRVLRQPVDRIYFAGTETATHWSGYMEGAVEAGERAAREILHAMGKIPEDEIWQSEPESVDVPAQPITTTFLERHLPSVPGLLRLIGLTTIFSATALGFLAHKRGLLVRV
Procedure: (§3) The determination of MAO-A and MAO-B inhibition was performed using commercially available recombinant human MAO-A and MAO-B enzymes expressed in baculovirus-infected insects sells (Sigma-Aldrich, M7316 and M7441) applying the commercially available Amplex® Red monoamine oxidase assay kit (Invitrogen A12214). The assays were performed as previously described. The determination of rat MAO-B inhibition was performed using mitochondrial-enriched fractions from male Sprague Dawley rat livers. […]

recombinant human MAO-A = molecular target: T7, recombinant human MAO-A (Homo sapiens, UniProt P21397); test: Monoamine oxidase assay (Amplex Red), MAO-A; format: biochemical; conditions: for inhibition at 10 µM: at 10,000 nM, read-out: % inhibition at indicated concentration, Human MAO-A; for IC50: n = 3, read-out: IC50 ± SEM, Human MAO-A
T7 construct: purchased Sigma-Aldrich M7316; host or cells: baculovirus-infected insect cells
T7 sequence (P21397 1-527): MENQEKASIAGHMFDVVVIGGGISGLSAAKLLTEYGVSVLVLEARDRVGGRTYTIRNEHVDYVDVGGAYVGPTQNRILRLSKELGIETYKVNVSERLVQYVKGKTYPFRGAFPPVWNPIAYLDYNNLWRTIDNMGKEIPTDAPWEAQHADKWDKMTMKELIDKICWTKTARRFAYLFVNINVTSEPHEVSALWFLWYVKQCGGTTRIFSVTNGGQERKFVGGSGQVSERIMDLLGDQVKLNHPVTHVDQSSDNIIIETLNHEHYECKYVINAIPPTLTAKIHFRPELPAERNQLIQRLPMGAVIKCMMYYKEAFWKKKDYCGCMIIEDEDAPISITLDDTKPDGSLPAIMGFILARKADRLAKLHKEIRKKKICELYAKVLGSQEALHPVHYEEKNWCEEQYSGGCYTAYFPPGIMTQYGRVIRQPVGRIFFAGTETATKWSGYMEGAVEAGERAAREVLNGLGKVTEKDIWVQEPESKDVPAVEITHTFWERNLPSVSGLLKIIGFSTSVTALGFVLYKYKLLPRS
Procedure: as §3

| Ki (human A3 AR) [µM] | inhibition at 10 µM (human A3 AR) [%] | Ki (rat A1 AR) [nM] | Ki (human A2B AR) [nM] | inhibition at 1 µM (human A2B AR) [%] | Ki (rat A2A AR) [nM] | Ki (human A1 AR) [nM] | inhibition at 10 µM (recombinant human MAO-B) [%] | IC50 (recombinant human MAO-B; n = 3) [µM] | % inhibition of radioligand binding at indicated concentration, A2A vs. [^3H]MSX-2 (rat A2A AR) [%] | inhibition at 1.5 µM (rat A1 AR) [%] | inhibition at 10 µM (recombinant human MAO-A) [%] | IC50 (recombinant human MAO-A) [µM] | IC50 ± SEM, Human MAO-B (recombinant human MAO-B; n = 3) | Compound |
| --- | --- | --- | --- | --- | --- | --- | --- | --- | --- | --- | --- | --- | --- | --- |
| > 10 | 17 | 142 ± 32 | > 1000 | 8 | 1100 | 197 ± 5 | 43 | > 10 | – | – | – | – | – | CCn1c(=O)c2c(nc3n2CCN(Cc2c(Cl)cccc2Cl)C3)n(C)c1=O [Compound 14k, 8-(2,6-dichlorobenzyl)-3-ethyl-1-methyl-6,7,8,9-tetrahydropyrazino[2,1-f]purine-2,4(1H,3H)-dione] |
| > 10 | 37 | 164 ± 28 | > 1000 | 9 | > 1000 | 5120 | 24 | > 10 | 7 | – | – | – | – | CCn1c(=O)c2c(nc3n2CCN(Cc2ccc(F)cc2)C3)n(C)c1=O [Compound 14h, 3-ethyl-8-(4-fluorobenzyl)-1-methyl-6,7,8,9-tetrahydropyrazino[2,1-f]purine-2,4(1H,3H)-dione] |
| 7.82 | – | 32 ± 0.9 | > 1000 | 12 | 2000 | 156 ± 5 | 22 | > 10 | – | – | – | – | – | CCn1c(=O)c2c(nc3n2CCN(Cc2ccccc2F)C3)n(CC)c1=O [Compound 15a, 1,3-diethyl-8-(2-fluorobenzyl)-6,7,8,9-tetrahydropyrazino[2,1-f]purine-2,4(1H,3H)-dione] |
| > 10 | 36 | > 1500 | > 1000 | 33 | > 1000 | – | – | 3.07 | 30 | 19 | 8 | > 10 | – | CCn1c(=O)c2c(nc3n2CCN(Cc2ccc(F)c(C(F)(F)F)c2)C3)n(CC)c1=O [Compound 15i, 1,3-diethyl-8-(4-fluoro-3-(trifluoromethyl)benzyl)-6,7,8,9-tetrahydropyrazino[2,1-f]purine-2,4(1H,3H)-dione] |

More lines, now with the values behind:

| Compound | Ki (human A3 AR) [µM] | inhibition at 10 µM (human A3 AR) [%] | Ki (rat A1 AR) [nM] | Ki (human A2B AR) [nM] | inhibition at 1 µM (human A2B AR) [%] | Ki (rat A2A AR) [nM] | Ki (human A1 AR) [nM] | inhibition at 10 µM (recombinant human MAO-B) [%] | IC50 (recombinant human MAO-B; n = 3) [µM] | % inhibition of radioligand binding at indicated concentration, A2A vs. [^3H]MSX-2 (rat A2A AR) [%] | inhibition at 1.5 µM (rat A1 AR) [%] | inhibition at 10 µM (recombinant human MAO-A) [%] | IC50 (recombinant human MAO-A) [µM] | IC50 ± SEM, Human MAO-B (recombinant human MAO-B; n = 3) |
| --- | --- | --- | --- | --- | --- | --- | --- | --- | --- | --- | --- | --- | --- | --- |
| Cn1c(=O)[nH]c(=O)c2c1nc1n2CCN(CCc2ccc(Cl)c(Cl)c2)C1 [Compound 13g, 8-(3,4-dichlorophenethyl)-1-methyl-6,7,8,9-tetrahydropyrazino[2,1-f]purine-2,4(1H,3H)-dione] | > 10 | 41 | > 1500 | > 1000 | 1 | > 1000 | – | – | 0.864 ± 0.064 | 10 | 3 | 12 | > 10 | submicromolar range |
| Cn1c(=O)[nH]c(=O)c2c1nc1n2CCN(Cc2ccccc2Br)C1 [Compound 13a, 8-(2-bromobenzyl)-1-methyl-6,7,8,9-tetrahydropyrazino[2,1-f]purine-2,4(1H,3H)-dione] | 14.7 | – | > 1500 | > 1000 | 1 | > 1000 | – | – | 4.53 | -23 | 17 | 13 | > 10 | – |
| Cn1c(=O)[nH]c(=O)c2c1nc1n2CCN(CCc2ccc(Cl)cc2Cl)C1 [Compound 13f, 8-(2,4-dichlorophenethyl)-1-methyl-6,7,8,9-tetrahydropyrazino[2,1-f]purine-2,4(1H,3H)-dione] | 17.2 | – | > 1500 | > 1000 | 1 | > 1000 | – | – | 2.88 | 19 | 5 | 13 | > 10 | – |
